The values below come from US11266706B2, “Method for preventing or alleviating lipid metabolism disorders using composition containing green tea extract with increased specific ingredient content” (AMOREPACIFIC CORPORATION, priority 2017, dated 2022).

This series in a line: Stability of each ingredient according to time and temperature (HPLC content). It is filed as physicochemical. Details: content of ingredient: unit not given here. The conditions noted are these: for stability of ingredient content over time and temperature: summary in words of Table 3, FIGS. 6 to 8. The method, then: In order to compare the catechin contents of the fermented green tea extract, each sample was analyzed by WATERS 2695 HPLC manufactured by Alliance, and analyzed using an ODS (C18) column. […] Each numerical value in Table 1 indicates the wt % of the corresponding ingredient, based on the total weight ratio of the extract.

Setting [1] is: Week 16: 45° C./Normal pressure.
[2] abbreviates: Week 16: Room temperature/Normal pressure.
[3] abbreviates: Week 25: 45° C./Normal pressure.
Where [4] appears, read: Week 25: Refrigerated/Normal pressure.
[5] abbreviates: Week 25: Room temperature/Normal pressure.

On to (−)-epigallocatechin gallate [EGCG], for which the “stability of ingredient content over time and temperature” value was “rapidly decreased after a predetermined period”. Under “Day 1 (Feb. 20, 2017)”, the content of ingredient came out at 7.48. The compound further yielded a content of ingredient (Week 1 (Feb. 27, 2017)) of 7.70. For the setting “Week 2 (Mar. 6, 2017)”, this compound registered a content of ingredient of 7.53. The compound further returned a content of ingredient under setting [1] of 7.72. Besides, the content of ingredient under setting [2] came to 7.79. This compound yielded a content of ingredient under setting [3] of 6.61. Also, the content of ingredient under setting [4] came to 7.19. Under setting [5], this compound came in with a content of ingredient of 6.19.
In the case of `Oc1cc(O)c2c(c1)O[C@H](c1cc(O)c(O)c(O)c1)[C@H](O)C2` [EGC, epigallocatechin], the content of ingredient runs as follows: (Day 1 (Feb. 20, 2017)) 2.12; (Week 1 (Feb. 27, 2017)) 2.12; (Week 2 (Mar. 6, 2017)) 2.19; under setting [1], 2.50; under setting [2], 2.84; under setting [3], 2.28. The content of ingredient was found to be 2.61 under setting [4] and 2.06 under setting [5].
In the case of epicatechin 3-O-gallate [ECG], the content of ingredient reads like this: (Day 1 (Feb. 20, 2017)) 2.22; (Week 1 (Feb. 27, 2017)) 2.28; (Week 2 (Mar. 6, 2017)) 2.27; under setting [1], 2.38; under setting [2], 2.36; under setting [3], 2.21. Further, the content of ingredient is reported as 2.15 under setting [4] and 2.02 under setting [5].
As for `O=C(O[C@@H]1Cc2c(O)cc(O)cc2O[C@H]1c1cc(O)c(O)c(O)c1)c1cc(O)c(O)c(O)c1` [GCG, (−)-gallocatechin gallate], the “stability of ingredient content over time and temperature” value was “maintained relatively stably”. In addition, the content of ingredient (Day 1 (Feb. 20, 2017)) turned out to be 7.80. Moreover, under “Week 1 (Feb. 27, 2017)”, the content of ingredient was found to be 7.95. For the setting “Week 2 (Mar. 6, 2017)”, the content of ingredient was 7.79. This compound yielded a content of ingredient under setting [1] of 8.74. Also, under setting [2], the content of ingredient amounted to 8.72. The same compound came in with a content of ingredient under setting [3] of 7.62. This compound also came in with a content of ingredient under setting [4] of 7.93. Under setting [5], this compound came in with a content of ingredient of 7.27.
